Experimental data published in ChEMBL document CHEMBL1781982, “Evaluation of antioxidant and antimicrobial activities of Bergenin and its derivatives obtained by chemoenzymatic synthesis” (Eur J Med Chem, 2011).
The source made the active and inactive calls. The calls are words filed in the database; no cut-off is given here.

Each compound was assayed on Radical scavenging activity (assay: Antioxidant activity assessed as DPPH free radical scavenging activity at 200 to 1000 uM after 5 mins). Details: not given.
Type: functional

Row | Compound | Activity
1 | COc1c(OC(=O)c2ccccc2)cc2c(c1OC(C)=O)[C@@H]1O[C@H](COC(C)=O)[C@@H](OC(C)=O)[C@H](OC(C)=O)[C@H]1OC2=O | Active
2 | CCCCCCCCCCCCCC(=O)Oc1cc2c(c(OC(C)=O)c1OC)[C@@H]1O[C@H](COC(C)=O)[C@@H](OC(C)=O)[C@H](OC(C)=O)[C@H]1OC2=O | Active
3 | COc1c(O)cc2c(c1O)[C@@H]1O[C@H](CO)[C@@H](O)[C@H](O)[C@H]1OC2=O [BERGENIN] | Active
4 | CCCCCCCCCC(=O)Oc1cc2c(c(OC(C)=O)c1OC)[C@@H]1O[C@H](COC(C)=O)[C@@H](OC(C)=O)[C@H](OC(C)=O)[C@H]1OC2=O | Active
5 | COc1c(OC(C)=O)cc2c(c1OC(C)=O)[C@@H]1O[C@H](COC(C)=O)[C@@H](OC(C)=O)[C@H](OC(C)=O)[C@H]1OC2=O [BERGENIN PENTAACETATE] | Active
6 | CCCCCC(=O)Oc1cc2c(c(OC(C)=O)c1OC)[C@@H]1O[C@H](COC(C)=O)[C@@H](OC(C)=O)[C@H](OC(C)=O)[C@H]1OC2=O | Active
7 | COc1c(O)cc2c(c1OC(C)=O)[C@@H]1O[C@H](COC(C)=O)[C@@H](OC(C)=O)[C@H](OC(C)=O)[C@H]1OC2=O | Active

These compounds were tested on Bacillus subtilis (assay: Antibacterial activity against Bacillus subtilis MTCC 441 at 30 ug/disc after 24 hrs). Details: MTCC 441, 24 h, read-out: DIZ.
Type: functional

Row | Compound | zone of inhibition at 30 µg/disc [mm]
8 | NC[C@H]1O[C@H](O[C@H]2[C@H](O)[C@@H](O[C@H]3O[C@H](CO)[C@@H](O)[C@H](N)[C@H]3O)[C@H](N)C[C@@H]2N)[C@H](O)[C@@H](O)[C@@H]1O [KANAMYCIN] | 23.2

The compounds below were run on Klebsiella pneumoniae (assay: Antibacterial activity against Klebsiella pneumoniae MTCC 139 at 2000 ug/ml after 24 hrs by agar-well diffusion method). Details: MTCC 139, 24 h, read-out: DIZ.
Type: functional

Row | Compound | zone of inhibition at 2000 µg/mL [mm]
9 | COc1c(OC(=O)c2ccccc2)cc2c(c1OC(C)=O)[C@@H]1O[C@H](COC(C)=O)[C@@H](OC(C)=O)[C@H](OC(C)=O)[C@H]1OC2=O | 6.3
10 | CCCCCCCCCCCCCC(=O)Oc1cc2c(c(OC(C)=O)c1OC)[C@@H]1O[C@H](COC(C)=O)[C@@H](OC(C)=O)[C@H](OC(C)=O)[C@H]1OC2=O | 3.1
11 | COc1c(O)cc2c(c1O)[C@@H]1O[C@H](CO)[C@@H](O)[C@H](O)[C@H]1OC2=O [BERGENIN] | 2.5
12 | CCCCCCCCCC(=O)Oc1cc2c(c(OC(C)=O)c1OC)[C@@H]1O[C@H](COC(C)=O)[C@@H](OC(C)=O)[C@H](OC(C)=O)[C@H]1OC2=O | 4.2
13 | COc1c(OC(C)=O)cc2c(c1OC(C)=O)[C@@H]1O[C@H](COC(C)=O)[C@@H](OC(C)=O)[C@H](OC(C)=O)[C@H]1OC2=O [BERGENIN PENTAACETATE] | 5.1
14 | CCCCCC(=O)Oc1cc2c(c(OC(C)=O)c1OC)[C@@H]1O[C@H](COC(C)=O)[C@@H](OC(C)=O)[C@H](OC(C)=O)[C@H]1OC2=O | 5.4
15 | COc1c(O)cc2c(c1OC(C)=O)[C@@H]1O[C@H](COC(C)=O)[C@@H](OC(C)=O)[C@H](OC(C)=O)[C@H]1OC2=O | 3.3

Each compound was assayed on Escherichia coli (assay: Antibacterial activity against Escherichia coli MTCC 739 at 2000 ug/ml after 24 hrs by agar-well diffusion method). Details: MTCC 739, 24 h, read-out: DIZ.
Type: functional

Row | Compound | zone of inhibition at 2000 µg/mL [mm]
16 | COc1c(OC(=O)c2ccccc2)cc2c(c1OC(C)=O)[C@@H]1O[C@H](COC(C)=O)[C@@H](OC(C)=O)[C@H](OC(C)=O)[C@H]1OC2=O | 9.3
17 | CCCCCCCCCCCCCC(=O)Oc1cc2c(c(OC(C)=O)c1OC)[C@@H]1O[C@H](COC(C)=O)[C@@H](OC(C)=O)[C@H](OC(C)=O)[C@H]1OC2=O | 5.4
18 | COc1c(O)cc2c(c1O)[C@@H]1O[C@H](CO)[C@@H](O)[C@H](O)[C@H]1OC2=O [BERGENIN] | 3.3
19 | CCCCCCCCCC(=O)Oc1cc2c(c(OC(C)=O)c1OC)[C@@H]1O[C@H](COC(C)=O)[C@@H](OC(C)=O)[C@H](OC(C)=O)[C@H]1OC2=O | 6.2
20 | COc1c(OC(C)=O)cc2c(c1OC(C)=O)[C@@H]1O[C@H](COC(C)=O)[C@@H](OC(C)=O)[C@H](OC(C)=O)[C@H]1OC2=O [BERGENIN PENTAACETATE] | 16.2
21 | CCCCCC(=O)Oc1cc2c(c(OC(C)=O)c1OC)[C@@H]1O[C@H](COC(C)=O)[C@@H](OC(C)=O)[C@H](OC(C)=O)[C@H]1OC2=O | 21.4
22 | COc1c(O)cc2c(c1OC(C)=O)[C@@H]1O[C@H](COC(C)=O)[C@@H](OC(C)=O)[C@H](OC(C)=O)[C@H]1OC2=O | 14.1

The compounds below were run on Staphylococcus aureus (assay: Antibacterial activity against Staphylococcus aureus MTCC 2940 at 2000 ug/ml after 24 hrs by agar-well diffusion method). Details: MTCC 2940, 24 h, read-out: DIZ.
Type: functional

Row | Compound | zone of inhibition at 2000 µg/mL [mm]
23 | COc1c(OC(=O)c2ccccc2)cc2c(c1OC(C)=O)[C@@H]1O[C@H](COC(C)=O)[C@@H](OC(C)=O)[C@H](OC(C)=O)[C@H]1OC2=O | 5.5
24 | CCCCCCCCCCCCCC(=O)Oc1cc2c(c(OC(C)=O)c1OC)[C@@H]1O[C@H](COC(C)=O)[C@@H](OC(C)=O)[C@H](OC(C)=O)[C@H]1OC2=O | 2.4
25 | COc1c(O)cc2c(c1O)[C@@H]1O[C@H](CO)[C@@H](O)[C@H](O)[C@H]1OC2=O [BERGENIN] | 2.1
26 | CCCCCCCCCC(=O)Oc1cc2c(c(OC(C)=O)c1OC)[C@@H]1O[C@H](COC(C)=O)[C@@H](OC(C)=O)[C@H](OC(C)=O)[C@H]1OC2=O | 3.2
27 | COc1c(OC(C)=O)cc2c(c1OC(C)=O)[C@@H]1O[C@H](COC(C)=O)[C@@H](OC(C)=O)[C@H](OC(C)=O)[C@H]1OC2=O [BERGENIN PENTAACETATE] | 8.3
28 | CCCCCC(=O)Oc1cc2c(c(OC(C)=O)c1OC)[C@@H]1O[C@H](COC(C)=O)[C@@H](OC(C)=O)[C@H](OC(C)=O)[C@H]1OC2=O | 6.4
29 | COc1c(O)cc2c(c1OC(C)=O)[C@@H]1O[C@H](COC(C)=O)[C@@H](OC(C)=O)[C@H](OC(C)=O)[C@H]1OC2=O | 3.2

What follows are compounds tested on Klebsiella pneumoniae (assay: Antibacterial activity against Klebsiella pneumoniae MTCC 139 at 30 ug/disc after 24 hrs). Details: MTCC 139, 24 h, read-out: DIZ.
Type: functional

Row | Compound | zone of inhibition at 30 µg/disc [mm]
30 | NC[C@H]1O[C@H](O[C@H]2[C@H](O)[C@@H](O[C@H]3O[C@H](CO)[C@@H](O)[C@H](N)[C@H]3O)[C@H](N)C[C@@H]2N)[C@H](O)[C@@H](O)[C@@H]1O [KANAMYCIN] | 19.5

Each compound was assayed against Xanthine dehydrogenase/oxidase (Homo sapiens, UniProt P47989) (assay: Inhibition of xanthine oxidase assessed as reduction of uric acid production from xanthine at 10 to 50 uM preincubated for 15 mins measured after 30 mins by spectrophotometry). Details: 0.5 h.
Chain of Xanthine dehydrogenase/oxidase (P47989 whole entry): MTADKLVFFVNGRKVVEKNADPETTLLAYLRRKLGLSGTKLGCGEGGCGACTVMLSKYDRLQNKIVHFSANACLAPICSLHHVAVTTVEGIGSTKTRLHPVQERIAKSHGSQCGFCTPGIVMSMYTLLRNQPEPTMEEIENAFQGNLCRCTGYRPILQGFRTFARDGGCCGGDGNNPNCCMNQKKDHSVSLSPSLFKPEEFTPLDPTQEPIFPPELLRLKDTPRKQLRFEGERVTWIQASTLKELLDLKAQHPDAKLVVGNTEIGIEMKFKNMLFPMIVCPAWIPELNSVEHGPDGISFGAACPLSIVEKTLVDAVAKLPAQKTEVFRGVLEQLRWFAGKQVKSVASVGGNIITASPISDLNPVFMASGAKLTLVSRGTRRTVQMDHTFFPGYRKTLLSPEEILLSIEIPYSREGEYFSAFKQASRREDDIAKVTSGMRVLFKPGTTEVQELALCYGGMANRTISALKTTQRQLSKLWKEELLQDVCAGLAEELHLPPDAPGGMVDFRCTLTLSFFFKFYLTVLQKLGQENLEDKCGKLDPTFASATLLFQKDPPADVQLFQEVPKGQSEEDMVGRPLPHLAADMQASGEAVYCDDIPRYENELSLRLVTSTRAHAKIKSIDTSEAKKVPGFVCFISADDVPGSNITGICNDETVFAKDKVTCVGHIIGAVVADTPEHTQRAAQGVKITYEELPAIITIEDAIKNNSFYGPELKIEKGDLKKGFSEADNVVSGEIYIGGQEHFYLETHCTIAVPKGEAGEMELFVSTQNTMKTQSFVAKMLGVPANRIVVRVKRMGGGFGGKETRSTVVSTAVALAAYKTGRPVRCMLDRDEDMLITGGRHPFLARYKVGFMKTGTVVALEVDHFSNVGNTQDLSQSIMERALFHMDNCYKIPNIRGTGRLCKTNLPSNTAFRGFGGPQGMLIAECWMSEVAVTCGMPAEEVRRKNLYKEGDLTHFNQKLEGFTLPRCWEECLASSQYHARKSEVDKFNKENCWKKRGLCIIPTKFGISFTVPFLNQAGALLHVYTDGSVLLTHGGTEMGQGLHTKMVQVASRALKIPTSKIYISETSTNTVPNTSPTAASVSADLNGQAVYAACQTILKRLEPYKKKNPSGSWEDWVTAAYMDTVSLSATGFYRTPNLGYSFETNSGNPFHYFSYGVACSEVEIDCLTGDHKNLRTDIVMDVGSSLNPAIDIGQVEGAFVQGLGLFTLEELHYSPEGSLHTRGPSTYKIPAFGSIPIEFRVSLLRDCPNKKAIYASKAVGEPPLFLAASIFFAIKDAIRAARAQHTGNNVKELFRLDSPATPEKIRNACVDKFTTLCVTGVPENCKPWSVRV

Row | Compound | inhibition (INH)
31 | COc1c(OC(=O)c2ccccc2)cc2c(c1OC(C)=O)[C@@H]1O[C@H](COC(C)=O)[C@@H](OC(C)=O)[C@H](OC(C)=O)[C@H]1OC2=O | Not Active
32 | COc1c(O)cc2c(c1O)[C@@H]1O[C@H](CO)[C@@H](O)[C@H](O)[C@H]1OC2=O [BERGENIN] | Not Active
33 | O=c1c(O)c(-c2ccc(O)c(O)c2)oc2cc(O)cc(O)c12 [QUERCETIN] | Active

Other lines, results leading:

Row | inhibition (INH) | Compound
34 | Not Active | CCCCCCCCCCCCCC(=O)Oc1cc2c(c(OC(C)=O)c1OC)[C@@H]1O[C@H](COC(C)=O)[C@@H](OC(C)=O)[C@H](OC(C)=O)[C@H]1OC2=O
35 | Not Active | CCCCCCCCCC(=O)Oc1cc2c(c(OC(C)=O)c1OC)[C@@H]1O[C@H](COC(C)=O)[C@@H](OC(C)=O)[C@H](OC(C)=O)[C@H]1OC2=O
36 | Not Active | CCCCCC(=O)Oc1cc2c(c(OC(C)=O)c1OC)[C@@H]1O[C@H](COC(C)=O)[C@@H](OC(C)=O)[C@H](OC(C)=O)[C@H]1OC2=O

Each compound was assayed on Staphylococcus aureus (assay: Antibacterial activity against Staphylococcus aureus MTCC 2940 at 30 ug/disc after 24 hrs). Details: MTCC 2940, 24 h, read-out: DIZ.
Type: functional

Row | Compound | zone of inhibition at 30 µg/disc [mm]
37 | NC[C@H]1O[C@H](O[C@H]2[C@H](O)[C@@H](O[C@H]3O[C@H](CO)[C@@H](O)[C@H](N)[C@H]3O)[C@H](N)C[C@@H]2N)[C@H](O)[C@@H](O)[C@@H]1O [KANAMYCIN] | 25.1

Each compound was assayed on Bacillus subtilis (assay: Antibacterial activity against Bacillus subtilis MTCC 441 at 2000 ug/ml after 24 hrs by agar-well diffusion method). Details: MTCC 441, 24 h, read-out: DIZ.
Type: functional

Row | Compound | zone of inhibition at 2000 µg/mL [mm]
38 | COc1c(OC(=O)c2ccccc2)cc2c(c1OC(C)=O)[C@@H]1O[C@H](COC(C)=O)[C@@H](OC(C)=O)[C@H](OC(C)=O)[C@H]1OC2=O | 4.3
39 | CCCCCCCCCCCCCC(=O)Oc1cc2c(c(OC(C)=O)c1OC)[C@@H]1O[C@H](COC(C)=O)[C@@H](OC(C)=O)[C@H](OC(C)=O)[C@H]1OC2=O | 2.2
40 | COc1c(O)cc2c(c1O)[C@@H]1O[C@H](CO)[C@@H](O)[C@H](O)[C@H]1OC2=O [BERGENIN] | 1.3
41 | CCCCCCCCCC(=O)Oc1cc2c(c(OC(C)=O)c1OC)[C@@H]1O[C@H](COC(C)=O)[C@@H](OC(C)=O)[C@H](OC(C)=O)[C@H]1OC2=O | 3.9
42 | COc1c(OC(C)=O)cc2c(c1OC(C)=O)[C@@H]1O[C@H](COC(C)=O)[C@@H](OC(C)=O)[C@H](OC(C)=O)[C@H]1OC2=O [BERGENIN PENTAACETATE] | 5.2
43 | CCCCCC(=O)Oc1cc2c(c(OC(C)=O)c1OC)[C@@H]1O[C@H](COC(C)=O)[C@@H](OC(C)=O)[C@H](OC(C)=O)[C@H]1OC2=O | 7.4
44 | COc1c(O)cc2c(c1OC(C)=O)[C@@H]1O[C@H](COC(C)=O)[C@@H](OC(C)=O)[C@H](OC(C)=O)[C@H]1OC2=O | 4.3

These compounds were tested on Escherichia coli (assay: Antibacterial activity against Escherichia coli MTCC 739 at 30 ug/disc after 24 hrs). Details: MTCC 739, 24 h, read-out: DIZ.
Type: functional

Row | Compound | zone of inhibition at 30 µg/disc [mm]
45 | NC[C@H]1O[C@H](O[C@H]2[C@H](O)[C@@H](O[C@H]3O[C@H](CO)[C@@H](O)[C@H](N)[C@H]3O)[C@H](N)C[C@@H]2N)[C@H](O)[C@@H](O)[C@@H]1O [KANAMYCIN] | 18
